We go through four compounds from EPA's ToxRefDB 2.

Where only a bound is given, the exact number is not on record here.

What is called LOAEL is the lowest dose or exposure tested at which an adverse effect was seen. A word on the NOAEL: it is the highest tested level that showed no adverse finding.

The subject of data set [1] is mouse. To be noted: Subchronic oral toxicity in rodents, b6c3f1, Feed, dose end: 13 week, group: systemic, systemic / in life observation / body weight / body weight + systemic / in life observation / body weight / body weight gain.
Data set [2] deals with rat. Conditions: Developmental neurotoxicity study, sprague dawley, Oral, Gavage/Intubation, dose end: 70 PND, group: cannot be grouped.
In data set [3] the test system is mouse. Conditions: Developmental neurotoxicity study, other, Oral, Gavage/Intubation, dose end: 21 PND, group: cannot be grouped.
Data set [4] concerns mouse. Conditions: Subchronic oral toxicity in rodents, b6c3f1, Feed, dose end: 13 week, group: systemic.
Data set [5] has as its system rat. Conditions: Developmental neurotoxicity study, sprague dawley, Oral, Gavage/Intubation, dose end: 90 PND, group: cannot be grouped.
Data set [6] relates to rat. To be noted: Developmental neurotoxicity study; sprague dawley; Oral; Gavage/Intubation; dose end: 57 PND; group: cannot be grouped; reproductive / offspring survival early / birth index / birth index + systemic / in life observation / body weight / body weight + ….
The test system of data set [7] is rat. To be noted: Subchronic oral toxicity in rodents, fischer, Feed, dose end: 13 week, group: systemic.
Data set [8] relates to rat. Conditions: Combined chronic toxicity/carcinogenicity, fischer, Oral, Feed, dose end: 2 year, group: systemic.
Data set [9] concerns rat. Conditions: Developmental neurotoxicity study; sprague dawley; Oral; Gavage/Intubation; dose end: 112 PND; group: cannot be grouped; systemic / organ weight / brain / absolute.
The test system of data set [10] is rat. To be noted: Subchronic oral toxicity in rodents, fischer, Feed, dose end: 13 week, group: systemic. The source holds these as a separate data set.
Data set [11] concerns rat. To be noted: Subchronic oral toxicity in rodents, fischer, Feed, dose end: 13 week, group: systemic, systemic / clinical chemistry / cholesterol / cholesterol + systemic / clinical chemistry / protein / protein + systemic / clinical ….
The test system of data set [12] is rat. Conditions: Prenatal developmental toxicity study; wistar; Oral; Feed; dose end: 21 GD; group: maternal; systemic / in life observation / food consumption / food consumption + systemic / in life observation / water consumption / water ….
Data set [13] deals with dog. Conditions: Chronic toxicity; beagle; Oral; Capsule; dose end: 52 week; group: systemic; systemic / in life observation / body weight / body weight + systemic / in life observation / body weight / body weight gain + systemic / ….
In data set [14] the test system is dog. To be noted: Chronic toxicity, beagle, Oral, Capsule, dose end: 12 month, group: systemic.
Data set [15] has as its system rat. Conditions: Subchronic oral toxicity in rodents, wistar, Feed, dose end: 90 day, group: systemic.
Setting [16] is: systemic / in life observation / body weight / body weight + systemic / in life observation / body weight / body weight gain.
Where [17] appears, read: systemic / in life observation / body weight / body weight + systemic / in life observation / body weight / body weight gain + developmental….
The mark [18] stands for this setting: developmental / offspring survival late / [other] / [other] + systemic / in life observation / clinical signs / ataxia + systemic / in life ….
The mark [19] stands for this setting: systemic / in life observation / clinical signs / head tilt.
The mark [20] stands for this setting: systemic / in life observation / body weight / body weight + systemic / in life observation / body weight / body weight gain + systemic / ….
[21] abbreviates: systemic / in life observation / body weight / body weight.
Setting [22] is: systemic / in life observation / body weight / body weight + developmental / offspring survival late / [other] / [other] + systemic / in ….
Where [23] appears, read: systemic / in life observation / body weight / body weight + systemic / in life observation / body weight / body weight gain + systemic / in….
[24] abbreviates: systemic / in life observation / body weight / body weight + systemic / organ weight / liver / absolute.
The mark [25] stands for this setting: systemic / in life observation / clinical signs / abnormal gait + systemic / in life observation / clinical signs / ataxia + systemic / in ….
[26] abbreviates: systemic / in life observation / clinical signs / abnormal gait + systemic / in life observation / clinical signs / convulsions.
Where [27] appears, read: systemic / in life observation / body weight / body weight gain + systemic / in life observation / food consumption / food consumption + ….

For `O=C1NC(=O)C(c2ccccc2)(c2ccccc2)N1` [5,5-Diphenylhydantoin], the LEL is 20.5 mg/kg/day in the data set on mouse [1]; 200 mg/kg/day with rat [2] (setting [17]); 10 mg/kg/day in the data set with mouse [3] (setting [19]); 11.2 mg/kg/day in the data set with mouse [4] (setting [16]); 100 mg/kg/day in the data set with rat [5] (setting [21]); 200 mg/kg/day in the data set on rat [6]. Besides, the LEL with rat [7] (setting [16]) amounted to 122 mg/kg/day; in the data set on rat [8] (setting [24]) it was 25 mg/kg/day; in the data set on rat [9], 100 mg/kg/day; in the data set with rat [10] (setting [16]), 122 mg/kg/day; in the data set on rat [11], 50 mg/kg/day. Moreover, the LOAEL with mouse [1] is 20.5 mg/kg/day; in the data set with rat [2] (setting [17]), > 200 mg/kg/day; in the data set with mouse [3] (setting [18]), > 35 mg/kg/day; in the data set with mouse [4] (setting [20]), 90 mg/kg/day; with rat [5] (setting [22]) it was > 200 mg/kg/day; in the data set on rat [6] it was > 200 mg/kg/day. For the same compound, the LOAEL in the data set with rat [7] (setting [16]) was 122 mg/kg/day; in the data set with rat [8] (setting [24]), > 25 mg/kg/day; with rat [9], > 100 mg/kg/day; in the data set with rat [10] (setting [20]), 234 mg/kg/day; in the data set with rat [11], > 100 mg/kg/day. For the same compound, the NEL with mouse [1] was < 20.5 mg/kg/day; with rat [2] (setting [16]), 150 mg/kg/day; in the data set on mouse [3] (setting [19]) it was < 10 mg/kg/day; in the data set with mouse [4] (setting [16]) it was < 11.2 mg/kg/day; in the data set on rat [5] (setting [21]), < 100 mg/kg/day; with rat [6] it was < 200 mg/kg/day. Also, the NEL amounted to 60.7 mg/kg/day in the data set on rat [7] (setting [23]); 12.5 mg/kg/day in the data set with rat [8] (setting [21]); 50 mg/kg/day in the data set on rat [9]; 60.7 mg/kg/day with rat [10] (setting [20]); 25 mg/kg/day in the data set on rat [11]. The NOAEL was < 20.5 mg/kg/day with mouse [1]; ≥ 200 mg/kg/day with rat [2] (setting [17]); ≥ 35 mg/kg/day in the data set on mouse [3] (setting [18]); 45 mg/kg/day in the data set on mouse [4] (systemic / pathology microscopic / liver / hypertrophy + systemic / in life observation / mortality / mortality); ≥ 200 mg/kg/day in the data set with rat [5] (setting [22]); ≥ 200 mg/kg/day in the data set with rat [6]. In addition, the NOAEL in the data set on rat [7] (setting [23]) was 60.7 mg/kg/day; with rat [8] (setting [24]), ≥ 25 mg/kg/day; in the data set on rat [9], ≥ 100 mg/kg/day; in the data set on rat [10] (setting [20]), 122 mg/kg/day; in the data set with rat [11], ≥ 100 mg/kg/day.
Consider `OC[C@H]1O[C@@H]2O[C@H]3[C@H](O)[C@@H](O)[C@@H](O[C@H]4[C@H](O)[C@@H](O)[C@@H](O[C@H]5[C@H](O)[C@@H](O)[C@@H](O[C@H]6[C@H](O)[C@@H](O)[C@@H](O[C@H]7[C@H](O)[C@@H](O)[C@@H](O[C@H]1[C@H](O)[C@H]2O)O[C@@H]7CO)O[C@@H]6CO)O[C@@H]5CO)O[C@@H]4CO)O[C@@H]3CO` [alpha-Cyclodextrin], for which, in the data set on rat [12], the LEL amounted to 13.2 mg/kg/day, the LOAEL was > 13.2 mg/kg/day, the NEL stood at 6.5 mg/kg/day and the NOAEL is ≥ 13.2 mg/kg/day.
Regarding `CC(C)[C@@H](Nc1ccc(C(F)(F)F)cc1Cl)C(=O)OC(C#N)c1cccc(Oc2ccccc2)c1` (stereo not given in full) [tau-Fluvalinate], in the data set with dog [13], the LEL stood at 12 mg/kg/day, the LOAEL came to 12 mg/kg/day, the NEL is 3 mg/kg/day and the NOAEL worked out at 3 mg/kg/day.
`CC1(C)[C@H](/C=C(\Cl)C(F)(F)F)[C@@H]1C(=O)O[C@@H](C#N)c1cccc(Oc2ccccc2)c1` [lambda-Cyhalothrin]: the NEL in the data set with dog [14] (setting [25]) is 0.1 mg/kg/day; with rat [15] (setting [27]) it was 0.5 mg/kg/day. In addition, the NOAEL is 0.1 mg/kg/day with dog [14] (setting [25]) and 2.5 mg/kg/day in the data set on rat [15] (setting [27]). For the same compound, the LEL is 0.5 mg/kg/day in the data set on dog [14] (setting [26]) and 2.5 mg/kg/day in the data set with rat [15] (systemic / clinical chemistry / aminopyrine-n-demethylase / aminopyrine-n-demethylase + systemic / organ weight / liver / absolute). Also, the figures for the LOAEL with dog [14] (setting [26]) and with rat [15] (setting [27]) were 0.5 mg/kg/day and 12.5 mg/kg/day, respectively.
